One assay concerns the target T1, human GC-A (Homo sapiens, UniProt P16066).
T1 construct: expressed in transfected cells
T1 sequence (P16066 33-1061): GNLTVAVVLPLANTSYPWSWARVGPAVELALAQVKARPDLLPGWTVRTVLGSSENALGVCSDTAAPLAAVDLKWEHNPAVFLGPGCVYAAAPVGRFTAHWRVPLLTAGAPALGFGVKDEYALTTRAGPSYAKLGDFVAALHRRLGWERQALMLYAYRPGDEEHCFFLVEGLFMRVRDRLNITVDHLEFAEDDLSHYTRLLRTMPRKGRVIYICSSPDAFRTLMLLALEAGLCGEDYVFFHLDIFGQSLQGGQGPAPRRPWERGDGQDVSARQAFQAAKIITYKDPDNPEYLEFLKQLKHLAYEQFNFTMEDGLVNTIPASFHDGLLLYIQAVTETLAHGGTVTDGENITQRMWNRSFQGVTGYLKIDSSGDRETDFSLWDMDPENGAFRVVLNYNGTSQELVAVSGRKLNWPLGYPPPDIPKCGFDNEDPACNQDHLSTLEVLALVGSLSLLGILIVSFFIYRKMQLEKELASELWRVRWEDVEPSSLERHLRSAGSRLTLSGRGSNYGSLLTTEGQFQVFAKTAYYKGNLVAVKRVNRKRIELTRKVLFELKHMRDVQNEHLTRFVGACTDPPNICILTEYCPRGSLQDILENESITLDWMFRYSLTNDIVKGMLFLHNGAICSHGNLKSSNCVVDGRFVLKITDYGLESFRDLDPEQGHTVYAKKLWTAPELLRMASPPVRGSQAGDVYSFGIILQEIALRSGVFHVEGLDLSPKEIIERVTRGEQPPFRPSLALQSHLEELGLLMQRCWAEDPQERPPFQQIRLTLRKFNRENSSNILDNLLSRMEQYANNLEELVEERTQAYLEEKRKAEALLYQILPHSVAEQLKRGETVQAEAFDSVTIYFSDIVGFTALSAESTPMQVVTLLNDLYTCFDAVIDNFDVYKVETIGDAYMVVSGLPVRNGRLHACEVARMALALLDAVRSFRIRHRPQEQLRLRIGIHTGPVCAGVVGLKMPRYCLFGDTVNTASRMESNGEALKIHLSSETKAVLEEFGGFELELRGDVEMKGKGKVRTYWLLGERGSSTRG
In words: Ex vivo MCUF-651 therapeutic potency assay with human plasma (Example 2), HEK293 overexpressing human GC-A. The class given is cell-based. The method, then:
Ex Vivo MCUF-651 Therapeutic Potency Assay with Human Plasma from Normal Subjects and Patients with Hypertension and Heart Failure: Stored human plasma samples from normal subjects and patients with HT and HF were utilized. The details of the recruitment of these participants were as described elsewhere (Reginauld et al., supra; and Ferrario et al., Hypertension 77:882-890, 2021). […] HEK293 overexpressing human GC-A were cultured and grown as described above. Cells were grown in 48-well plates to 80-90% confluence. On the day of the experiment, cells were pre-incubated with MCUF-651 at doses of 1, 5, or 10 μM or with vehicle (Veh) in 250 μL treatment buffer (as described above) for 5 minutes at 37° C. 25 μL of human plasma was then added and incubated for additional 10 minutes. Cells were then washed with PBS once and lysed with 0.1 M HCl, and intracellular cGMP levels were measured in the lysate using a commercial cGMP ELISA kit (Enzo Life Sciences, Farmingdale, NY) as instructed by the manufacturer.

The next assay deals with T2, human pGC-A (Homo sapiens, UniProt P16066).
T2 construct: expressed in transfected cells
T2 sequence (P16066 33-1061): T1 sequence (P16066 33-1061)
Kind of assay: MCUF-651/NP/pGC-A/cGMP potency assay (Example 5), HEK293 cells overexpressing human pGC-A. In kind it is cell-based. The conditions noted are these: for cGMP potency: particularly at 5 and 10 μM. The method, then:
In vitro Cell Culture: HEK 293 cells were stably transfected with human pGC-A or pGC-B using LIPOFECTAMINE™ (Invitrogen, Grand Island, NY) (Chen et al. 2020, supra). Transfected cells (HEK/GC-A or (HEK/GC-B) were maintained in DMEM supplemented with 10% FBS and 250 μg/ml G418. Cells in 48-well plates were grown to 80-90% confluency and then incubated in Hanks Balanced Salt Solution (HBSS, Invitrogen) containing 20 mM HEPES, 0.1% BSA, and 0.5 mM 3-isobutyl-1-methylxanthine (IBMX, Sigma).
MCUF-651/NP/pGC-A/cGMP Potency Assay: Human plasma samples from patients with HT (N=6), ADHF (N=6), and CKD (N=5) were utilized. The details of the recruitment of participants are described above. Stably transfected HEK293 cells engineered to overexpress human pGC-A were cultured (as described above) and grown in 48-well plates to 80-90% confluence. On the day of the experiment, human plasma was diluted 10× with HBSS. 250 μl of diluted plasma was added together with vehicle (DSMO) or the MCUF-651 small molecule pGC-A positive allosteric modulator at doses of 1, 5, or 10 μM to the HEK/pGC-A cells and incubated for 10 minutes at 37° C. Cells were then washed with PBS once and lysed with 0.1 M HCl, and intracellular cGMP levels were measured in the lysate using a commercial cGMP ELISA kit (Enzo Life Sciences, Farmingdale, NY) as instructed by the manufacturer.

As for `CN(C)CCN1CCCC(C(=O)Nc2nc3c(F)cc(F)cc3s2)C1` (stereo not shown) [MCUF-651], on human GC-A (1, 5 or 10 μM, plasma from normal subjects, hypertensive and HF patients (all three cohorts)), the “generation of cGMP levels” value is on record as “potentiated”. The “cGMP potency compared between cohorts” value on human GC-A (HF plasma, highest circulating ANP and BNP) is recorded as “greatest cGMP potency”. Further, the cGMP potency result is listed as “higher cGMP potency” at human pGC-A (ADHF plasma with higher circulating ANP and BNP); “lower cGMP potency” on human pGC-A (ADHF plasma with lower circulating ANP and BNP). The cGMP levels result was “modestly potentiated” on human pGC-A (ADHF plasma, dose 1 μM); “markedly potentiated” at human pGC-A (ADHF plasma, dose 5 μM); “markedly potentiated” at human pGC-A (ADHF plasma, dose 10 μM); “no response” on human pGC-A (CKD plasma, dose 1 μM); “minimally potentiated” on human pGC-A (CKD plasma, dose 5 μM); “minimally potentiated” at human pGC-A (CKD plasma, dose 10 μM). In addition, the cGMP levels entry at human pGC-A (HT plasma, dose 1 μM) is given as “modestly potentiated”; on human pGC-A (HT plasma, dose 5 μM) it was “markedly potentiated”; at human pGC-A (HT plasma, dose 10 μM) it was “markedly potentiated”.
